From patent US20220031596A1, “ANTI-AGING AGENT AND ANTI-AGING METHOD” (priority 2018, published 2022)

Assays:
Assay type in all cases: in vivo, human
[1] = system: adrenocorticotropic hormone concentration in the plasma; assay: Evaluation of adrenocorticotropic hormone secretion promoting effect (plasma ACTH, 24-week oral ingestion); details: for adrenocorticotropic hormone concentration in the plasma, 0 weeks (before ingestion) / adrenocorticotropic hormone concentration in the plasma, 24 weeks (after ingestion) / adrenocorticotropic hormone concentration in the plasma, Change rate (24 weeks - 0 weeks): High Dose Group (200 mg/daily, oral), mean±SD; for adrenocorticotropic hormone concentration in the plasma, 0 weeks (before ingestion): baseline
Description: In order to confirm a change in the adrenocorticotropic hormone quantity before and after ingestion of the nicotinamide mononucleotide, a test was conducted on healthy males and females aged 50 to 70 years.
As a sample of Working Example 10, a capsule formulation containing the nicotinamide mononucleotide and starch (200 mg of the nicotinamide mononucleotide in 4 capsules) (manufactured by SHINKOWA PHARMACEUTICAL Co., Ltd.) was used.
(§1) Each group consisting of five healthy males and females aged 50 to 70 years in an unbiased age group ingested the above high dose capsule formulation once a day by 4 capsules for 24 weeks (total 10 subjects, 200 mg/daily ingestion). In order to conduct appropriate evaluations, those who had been regularly using medical products for chronic diseases, those who had been consuming healthy foods that may affect clinical research, and those who were currently participating in other clinical researches or clinical trials or had participated in other clinical researches or clinical trials within the last three months were excluded from the subject for the evaluation. The capsule formulations were ingested at 10 am (between meals and fasting state) together with water or lukewarm water (oral administration).
Measurement of the adrenocorticotropic hormone quantity in the plasma was conducted by requesting the measurement to an external public organization according to a usual method. FIGS. 20a to 20c indicate transitions of the adrenocorticotropic hormone concentration (pg/ml) in the plasma for 24 weeks. FIG. 20a represents the transitions of the whole subjects; FIG. 20b represents the transitions of the male subjects; FIG. 20c represents the transitions of the female subjects. Further, FIGS. 21a to 21c indicate change rates (%) of the blood adrenocorticotropic hormone concentration up to 24 weeks when the nicotinamide mononucleotide was orally administered to the subjects for 24 weeks. FIG. 21a represents the change rates of the whole subjects; FIG. 21b represents the change rates of the male subjects; FIG. 21c represents the change rates of the female subjects. Further, Table 10 indicates the numerical values of the adrenocorticotropic hormone concentration (pg/ml) in the plasma before the ingestion of the nicotinamide mononucleotide (0 weeks) and after the ingestion of the nicotinamide mononucleotide (24 weeks). Note that the numerical values represent mean values±standard deviation.

[2] = system: free thyroxine concentration in the plasma; assay: Evaluation of free thyroxine (T4) secretion promoting effect (plasma free thyroxine, 24-week oral ingestion); details: for free thyroxine concentration in the plasma, 0 weeks (before ingestion) / free thyroxine concentration in the plasma, 24 weeks (after ingestion) / free thyroxine concentration in the plasma, Change rate (24 weeks - 0 weeks): High Dose Group (200 mg/daily, oral), mean±SD; for free thyroxine concentration in the plasma, 0 weeks (before ingestion): baseline
Description: In order to confirm a change in the free thyroxine quantity before and after ingestion of the nicotinamide mononucleotide, a test was conducted on healthy males and females aged 50 to 70 years.
As a sample of Working Example 5, a capsule formulation containing the nicotinamide mononucleotide and starch (200 mg of the nicotinamide mononucleotide in 4 capsules) (manufactured by SHINKOWA PHARMACEUTICAL Co., Ltd.) was used.
as §1
Measurement of the free thyroxine quantity in the plasma was conducted by requesting the measurement to an external public organization according to a usual method. FIGS. 10a to 10c indicate transitions of the free thyroxine concentration (ng/dl) in the plasma for 24 weeks. FIG. 10a represents the transitions of the whole subjects; FIG. 10b represents the transitions of the male subjects; FIG. 10c represents the transitions of the female subjects. Further, FIGS. 11a to 11c indicate change rates (%) of the blood free thyroxine concentration up to 24 weeks when the nicotinamide mononucleotide was orally administered to the subjects for 24 weeks. FIG. 11a represents the change rates of the whole subjects; FIG. 11b represents the change rates of the male subjects; FIG. 11c represents the change rates of the female subjects. Further, Table 5 indicates the numerical values of the free thyroxine concentration (ng/dl) in the plasma before the ingestion of the nicotinamide mononucleotide (0 weeks) and after the ingestion of the nicotinamide mononucleotide (24 weeks). Note that the numerical values represent mean values±standard deviation.

[3] = system: testosterone concentration in the plasma; assay: Evaluation of testosterone secretion promoting effect (plasma testosterone, 24-week oral ingestion); details: for testosterone concentration in the plasma, 0 weeks (before ingestion) / testosterone concentration in the plasma, 24 weeks (after ingestion) / testosterone concentration in the plasma, Change rate (24 weeks - 0 weeks): High Dose Group (200 mg/daily, oral), mean±SD; for testosterone concentration in the plasma, 0 weeks (before ingestion): baseline
Description: In order to confirm a change in the testosterone quantity before and after ingestion of the nicotinamide mononucleotide, a test was conducted on healthy males and females aged 50 to 70 years.
As a sample of Working Example 8, a capsule formulation containing the nicotinamide mononucleotide and starch (200 mg of the nicotinamide mononucleotide in 4 capsules) (manufactured by SHINKOWA PHARMACEUTICAL Co., Ltd.) was used.
as §1
Measurement of the testosterone quantity in the plasma was conducted by requesting the measurement to an external public organization according to a usual method. FIGS. 16a to 16c indicate transitions of the testosterone concentration (ng/ml) in the plasma for 24 weeks. FIG. 16a represents the transitions of the whole subjects; FIG. 16b represents the transitions of the male subjects; FIG. 16c represents the transitions of the female subjects. Further, FIGS. 17a to 17c indicate change rates (%) of the blood testosterone concentration up to 24 weeks when the nicotinamide mononucleotide was orally administered to the subjects for 24 weeks. FIG. 17a represents the change rates of the whole subjects; FIG. 17b represents the change rates of the male subjects; FIG. 17c represents the change rates of the female subjects. Further, Table 8 indicates the numerical values of the testosterone concentration (ng/ml) in the plasma before the ingestion of the nicotinamide mononucleotide (0 weeks) and after the ingestion of the nicotinamide mononucleotide (24 weeks). Note that the numerical values represent mean values±standard deviation.

NC(=O)c1ccc[n+]([C@@H]2O[C@H](COP(=O)([O-])O)[C@@H](O)[C@H]2O)c1 [nicotinamide mononucleotide]
adrenocorticotropic hormone concentration in the plasma, 0 weeks (before ingestion) ([1]; Female): 17.5 ± 7.0 pg/mL | adrenocorticotropic hormone concentration in the plasma, 24 weeks (after ingestion) ([1]; Female): 21.9 ± 14.2 pg/mL | adrenocorticotropic hormone concentration in the plasma, Change rate (24 weeks - 0 weeks) ([1]; Female): 4.4 ± 15.3 pg/mL | adrenocorticotropic hormone concentration in the plasma, 0 weeks (before ingestion) ([1]; Male): 24.4 ± 10.0 pg/mL | adrenocorticotropic hormone concentration in the plasma, 24 weeks (after ingestion) ([1]; Male): 35.7 ± 10.2 pg/mL | adrenocorticotropic hormone concentration in the plasma, Change rate (24 weeks - 0 weeks) ([1]; Male): 11.3 ± 4.6 pg/mL | adrenocorticotropic hormone concentration in the plasma, 0 weeks (before ingestion) ([1]; Whole Subjects): 20.9 ± 8.9 pg/mL | adrenocorticotropic hormone concentration in the plasma, 24 weeks (after ingestion) ([1]; Whole Subjects): 28.8 ± 13.7 pg/mL | adrenocorticotropic hormone concentration in the plasma, Change rate (24 weeks - 0 weeks) ([1]; Whole Subjects): 7.8 ± 11.2 pg/mL | adrenocorticotropic hormone concentrations in the plasma, effect of ingestion (in words) ([1]; oral, 200 mg/daily, 24 weeks, FIGS. 20a-20c, 21a-21c): increased | free thyroxine concentration in the plasma, 0 weeks (before ingestion) ([2]; Female): 1.10 ± 0.19 ng/dL | free thyroxine concentration in the plasma, 24 weeks (after ingestion) ([2]; Female): 1.13 ± 0.09 ng/dL | free thyroxine concentration in the plasma, Change rate (24 weeks - 0 weeks) ([2]; Female): 0.03 ± 012 ng/dL | free thyroxine concentration in the plasma, 0 weeks (before ingestion) ([2]; Male): 1.15 ± 0.19 ng/dL | free thyroxine concentration in the plasma, 24 weeks (after ingestion) ([2]; Male): 1.22 ± 0.17 ng/dL | free thyroxine concentration in the plasma, Change rate (24 weeks - 0 weeks) ([2]; Male): 0.07 ± 0.15 ng/dL | free thyroxine concentration in the plasma, 0 weeks (before ingestion) ([2]; Whole Subjects): 1.13 ± 0.18 ng/dL | free thyroxine concentration in the plasma, 24 weeks (after ingestion) ([2]; Whole Subjects): 1.18 ± 0.14 ng/dL | free thyroxine concentration in the plasma, Change rate (24 weeks - 0 weeks) ([2]; Whole Subjects): 0.05 ± 0.13 ng/dL | free thyroxine concentrations in the plasma, effect of ingestion (in words) ([2]; oral, 200 mg/daily, 24 weeks, FIGS. 10a-10c, 11a-11c): increased | testosterone concentration in the plasma, 0 weeks (before ingestion) ([3]; Female): 0.09 ± 0.06 ng/mL | testosterone concentration in the plasma, 24 weeks (after ingestion) ([3]; Female): 0.10 ± 0.05 ng/mL | testosterone concentration in the plasma, Change rate (24 weeks - 0 weeks) ([3]; Female): 0.00 ± 0.03 ng/mL | testosterone concentration in the plasma, 0 weeks (before ingestion) ([3]; Male): 5.66 ± 1.54 ng/mL | testosterone concentration in the plasma, 24 weeks (after ingestion) ([3]; Male): 5.90 ± 1.59 ng/mL | testosterone concentration in the plasma, Change rate (24 weeks - 0 weeks) ([3]; Male): 0.25 ± 0.92 ng/mL | testosterone concentration in the plasma, 0 weeks (before ingestion) ([3]; Whole Subjects): 2.87 ± 3.11 ng/mL | testosterone concentration in the plasma, 24 weeks (after ingestion) ([3]; Whole Subjects): 3.00 ± 3.24 ng/mL | testosterone concentration in the plasma, Change rate (24 weeks - 0 weeks) ([3]; Whole Subjects): 0.13 ± 0.63 ng/mL | testosterone concentrations in the plasma, effect of ingestion (in words) ([3]; oral, 200 mg/daily, 24 weeks, FIGS. 16a-16c, 17a-17c): increased
